We go through 14 molecules from ChEMBL document CHEMBL4020735, “Design, synthesis, and evaluation of multitarget-directed ligands against Alzheimer's disease based on the fusion of donepezil and curcumin” (Bioorg Med Chem, 2017).

The target of one data set is Acetylcholinesterase (Electrophorus electricus, UniProt O42275).
Another data set concerns the target Cholinesterase (Equus caballus, UniProt P81908).
A short description of data set [1]: Metal chelating activity of compound assessed as compound-Fe2+ complex formation at 20 uM after 30 mins by UV-Vis spectrophotometric analysis. Type of data set: functional.
Data set [2] is described as follows: Permeability of the compound at […] after 10 hrs by PAMPA. Type of data set: physicochemical. As to conditions: read-out: permeability.
Data set [3] concerns the target Amyloid-beta precursor protein (Homo sapiens) (UniProt P05067). Kind of data set: Inhibition of self-mediated aggregation of amyloid beta (1 to 42 residues) (unknown origin) at 20 uM after 48 hrs by Thioflavin T fluorescence assay relative to control.
Data set [4] deals with Acetylcholinesterase (Electrophorus electricus) (UniProt O42275). The data set can be described thus: Mixed type inhibition of electric eel AChE using acetylthiocholine iodide as substrate preincubated for 15 mins followed by substrate addition by Lineweaver-Burk plot analysis.
Sequence of Acetylcholinesterase (Electrophorus electricus) (O42275 24-633 limits assumed): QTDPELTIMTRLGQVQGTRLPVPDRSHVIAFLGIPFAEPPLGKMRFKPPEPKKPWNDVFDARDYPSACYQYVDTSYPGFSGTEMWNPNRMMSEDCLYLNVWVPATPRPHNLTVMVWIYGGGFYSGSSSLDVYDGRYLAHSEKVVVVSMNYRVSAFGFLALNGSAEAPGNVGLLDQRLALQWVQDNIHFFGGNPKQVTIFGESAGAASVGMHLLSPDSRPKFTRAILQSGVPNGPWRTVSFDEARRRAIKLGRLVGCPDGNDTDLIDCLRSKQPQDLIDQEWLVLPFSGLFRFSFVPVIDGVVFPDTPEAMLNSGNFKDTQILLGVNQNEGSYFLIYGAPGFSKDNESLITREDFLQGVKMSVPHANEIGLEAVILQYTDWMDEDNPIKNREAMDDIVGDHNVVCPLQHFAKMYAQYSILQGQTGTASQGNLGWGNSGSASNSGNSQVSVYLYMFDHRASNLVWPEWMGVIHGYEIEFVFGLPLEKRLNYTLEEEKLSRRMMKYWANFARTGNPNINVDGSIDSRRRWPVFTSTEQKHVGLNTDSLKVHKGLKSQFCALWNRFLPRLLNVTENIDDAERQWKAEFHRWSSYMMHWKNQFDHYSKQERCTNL
Data set [5] is described as follows: Antioxidant activity assessed as trolox equivalent of APPH-induced radical scavenging activity at 0.117 to 10 uM preincubated for 10 mins followed by AAPH addition measured every minute for 90 mins by ORAC fluorescein assay. Type of data set: functional.
Data set [6] is described as follows: Metal chelating activity of compound assessed as compound-Zn2+ complex formation at 20 uM after 30 mins by UV-Vis spectrophotometric analysis. Type of data set: functional.
Data set [7] is described as follows: Metal chelating activity of compound assessed as compound-Cu2+ complex formation at 20 uM after 30 mins by UV-Vis spectrophotometric analysis. Type of data set: functional.

The source made the active and inactive calls. No cut-off for these calls is given here.

Sequence of Cholinesterase (P81908 whole entry): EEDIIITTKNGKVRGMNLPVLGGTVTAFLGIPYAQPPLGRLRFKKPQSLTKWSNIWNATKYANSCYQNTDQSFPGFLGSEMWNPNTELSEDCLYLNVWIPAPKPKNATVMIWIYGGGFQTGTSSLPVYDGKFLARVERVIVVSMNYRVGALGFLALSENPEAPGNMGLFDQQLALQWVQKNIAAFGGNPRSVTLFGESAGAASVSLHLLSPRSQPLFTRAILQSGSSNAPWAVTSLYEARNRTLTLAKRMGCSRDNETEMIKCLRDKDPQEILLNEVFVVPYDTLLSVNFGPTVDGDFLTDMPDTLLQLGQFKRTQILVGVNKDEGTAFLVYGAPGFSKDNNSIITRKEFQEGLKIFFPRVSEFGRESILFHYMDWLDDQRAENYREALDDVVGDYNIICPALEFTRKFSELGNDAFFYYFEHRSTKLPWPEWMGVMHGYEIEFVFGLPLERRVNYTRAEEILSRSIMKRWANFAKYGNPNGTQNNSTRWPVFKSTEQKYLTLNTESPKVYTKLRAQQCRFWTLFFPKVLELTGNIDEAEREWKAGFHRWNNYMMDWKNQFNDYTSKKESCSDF
Sequence of Amyloid-beta precursor protein (Homo sapiens) (P05067 whole entry, the tested form may be a part): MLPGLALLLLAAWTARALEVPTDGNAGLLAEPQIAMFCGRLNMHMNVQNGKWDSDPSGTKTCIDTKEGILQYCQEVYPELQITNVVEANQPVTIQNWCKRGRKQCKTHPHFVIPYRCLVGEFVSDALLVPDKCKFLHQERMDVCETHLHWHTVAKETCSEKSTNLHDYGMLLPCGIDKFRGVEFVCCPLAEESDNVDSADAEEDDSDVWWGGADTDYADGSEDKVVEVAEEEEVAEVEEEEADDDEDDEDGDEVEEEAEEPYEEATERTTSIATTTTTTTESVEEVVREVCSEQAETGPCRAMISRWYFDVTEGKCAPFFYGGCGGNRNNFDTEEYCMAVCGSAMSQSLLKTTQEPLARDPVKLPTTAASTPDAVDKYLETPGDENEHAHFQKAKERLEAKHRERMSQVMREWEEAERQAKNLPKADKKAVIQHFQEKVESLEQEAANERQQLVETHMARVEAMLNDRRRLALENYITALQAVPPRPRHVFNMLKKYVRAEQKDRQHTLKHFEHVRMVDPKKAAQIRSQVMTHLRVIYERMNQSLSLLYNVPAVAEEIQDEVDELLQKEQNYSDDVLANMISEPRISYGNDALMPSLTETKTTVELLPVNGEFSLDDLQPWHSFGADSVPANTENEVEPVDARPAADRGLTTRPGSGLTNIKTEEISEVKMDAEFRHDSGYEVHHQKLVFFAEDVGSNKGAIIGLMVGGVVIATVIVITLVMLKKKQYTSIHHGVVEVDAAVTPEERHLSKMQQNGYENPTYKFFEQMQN
Sequence of Acetylcholinesterase (O42275 whole entry): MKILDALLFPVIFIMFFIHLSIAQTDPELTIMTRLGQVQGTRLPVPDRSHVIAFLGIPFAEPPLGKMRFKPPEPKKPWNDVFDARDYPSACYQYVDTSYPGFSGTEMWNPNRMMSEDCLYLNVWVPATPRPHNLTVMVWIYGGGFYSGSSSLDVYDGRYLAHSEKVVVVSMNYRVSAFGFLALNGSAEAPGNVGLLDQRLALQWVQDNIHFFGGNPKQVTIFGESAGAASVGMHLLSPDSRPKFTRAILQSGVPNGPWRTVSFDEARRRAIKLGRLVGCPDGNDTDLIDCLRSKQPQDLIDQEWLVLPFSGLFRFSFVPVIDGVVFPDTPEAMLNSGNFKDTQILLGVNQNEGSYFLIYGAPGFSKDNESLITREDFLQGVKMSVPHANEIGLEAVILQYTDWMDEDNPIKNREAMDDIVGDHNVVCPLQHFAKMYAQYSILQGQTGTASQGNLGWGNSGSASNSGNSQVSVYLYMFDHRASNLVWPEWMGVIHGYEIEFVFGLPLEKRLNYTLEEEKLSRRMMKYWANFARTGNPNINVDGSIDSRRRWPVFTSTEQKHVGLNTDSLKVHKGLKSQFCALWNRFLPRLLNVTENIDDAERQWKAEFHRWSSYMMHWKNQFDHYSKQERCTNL

In the case of `COc1ccc(C(=O)C(CC2CCN(Cc3ccccc3)CC2)C(C)=O)cc1OC` (stereo not given), the IC50 is 2.55 µM against Acetylcholinesterase and 20.8 µM against Cholinesterase.
For `COc1cccc(C(=O)C(CC2CCN(Cc3ccccc3)CC2)C(C)=O)c1` (stereo not given), the IC50 stood at 1.78 µM against Acetylcholinesterase and 14.4 µM at Cholinesterase.
With `COc1cc(C(=O)C(CCC2CCN(Cc3cccc(C)c3)CC2)C(C)=O)ccc1O` (stereo not given), the IC50 on Acetylcholinesterase came out at 0.961 µM; against Cholinesterase, 3.36 µM.
As to `COc1cc(C(=O)C(CCC2CCN(Cc3ccccc3)CC2)C(C)=O)ccc1O` (stereo not given), the figures for the IC50 against Acetylcholinesterase and on Cholinesterase were 2.05 µM and 15.6 µM, respectively.
`COCOc1ccc(C(=O)C(CCC2CCN(Cc3cccc(C)c3)CC2)C(C)=O)cc1OC` (stereo not given): the figures for the 50% inhibitory concentration (IC50) on Acetylcholinesterase and at Cholinesterase were 0.34 µM and 3.09 µM, respectively.
Consider `COc1cccc(C(=O)C(CCC2CCN(Cc3cccc(C)c3)CC2)C(C)=O)c1` (stereo not given), for which the half-inhibitory concentration (IC50) was 0.555 µM against Acetylcholinesterase and 1.85 µM on Cholinesterase.
Turning to `COc1ccc(C(=O)C(CCC2CCN(Cc3cccc(C)c3)CC2)C(C)=O)cc1O` (stereo not given), the values for the concentration for half-maximal inhibition (IC50) on Acetylcholinesterase and at Cholinesterase were 0.621 µM and 16.6 µM, respectively.
As for `COc1ccc(C(=O)C(CCC2CCN(Cc3ccccc3)CC2)C(C)=O)cc1OC` (stereo not given), the IC50 at Acetylcholinesterase is 0.373 µM; against Cholinesterase, 2.82 µM.
Regarding `COc1ccc(C(=O)CC(=O)CC2CCN(Cc3ccccc3)CC2)cc1O`, the outcome in [1] and in [7] was Active. Besides, the Papp at 10 h in [2] worked out at 11.8 ×10⁻⁶ cm/s. This molecule registered an inhibition in data set [3] of 45.3%. Besides, the IC50 was determined as 0.187 µM on Acetylcholinesterase and 12.4 µM against Cholinesterase. For the same molecule, the inhibition entry in [4] was “Active”. Further, in data set [5], the Activity amounted to 3.07 equiv. In addition, the outcome in data set [6] was inactive.
Turning to `COc1ccc(C(=O)C(CCC2CCN(Cc3cccc(C)c3)CC2)C(C)=O)cc1OC` (stereo not given), the IC50 at Acetylcholinesterase was found to be 0.263 µM; on Cholinesterase, 2 µM.
For `COc1ccc(C(=O)C(CCC2CCN(Cc3ccccc3)CC2)C(C)=O)cc1` (stereo not given), in that order: 0.517 µM and 1.64 µM.
Take `COc1cc(/C=C/C(=O)CC(=O)/C=C/c2ccc(O)c(OC)c2)ccc1O`: the Activity in [5] worked out at 2.52 equiv.
Turning to `COc1ccc(C(=O)CC(=O)CC2CCN(Cc3ccccc3)CC2)cc1OC`, the Papp at 10 h in data set [2] came to 12.1 ×10⁻⁶ cm/s. Besides, the inhibition in data set [3] is 22%. The half-inhibitory concentration (IC50) came to 0.149 µM against Acetylcholinesterase and 2.33 µM on Cholinesterase. Besides, the Activity in data set [5] came out at 1.1 equiv.
`COc1ccc(C(=O)CC(=O)CC2CCN(Cc3cccc(C)c3)CC2)cc1O`: in [2], the Papp at 10 h is 11.3 ×10⁻⁶ cm/s. This molecule also gave an inhibition in [3] of 30.4%. Besides, the IC50 was 0.228 µM at Acetylcholinesterase and 9.78 µM against Cholinesterase. Besides, the Activity in data set [5] came out at 2.49 equiv.
